Measured values: US8895733B2 (Novartis AG, priority 2010, dated 2014)

Target: T1, Nav 1.7 (Homo sapiens, UniProt Q15858)
T1 construct: expressed in transfected cells
Assay: Whole-cell voltage clamp electrophysiology, automated patch clamp (marker c in Table of Examples)
Type: cell-based
Settings: marker c = Automated patch clamp data; read-out: Nav 1.7 activity
In short: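 Human NaV1.7 currents were recorded by whole-cell automated patch clamp, on IonWorks Quattro or another automated platform, typically in perforated-patch configuration. The stimulus protocol was designed to probe block mainly of the inactivated state, with a typical sweep stepping from about −65 mV holding to −10 mV, then −100 mV.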

T1 sequence (Q15858 whole entry): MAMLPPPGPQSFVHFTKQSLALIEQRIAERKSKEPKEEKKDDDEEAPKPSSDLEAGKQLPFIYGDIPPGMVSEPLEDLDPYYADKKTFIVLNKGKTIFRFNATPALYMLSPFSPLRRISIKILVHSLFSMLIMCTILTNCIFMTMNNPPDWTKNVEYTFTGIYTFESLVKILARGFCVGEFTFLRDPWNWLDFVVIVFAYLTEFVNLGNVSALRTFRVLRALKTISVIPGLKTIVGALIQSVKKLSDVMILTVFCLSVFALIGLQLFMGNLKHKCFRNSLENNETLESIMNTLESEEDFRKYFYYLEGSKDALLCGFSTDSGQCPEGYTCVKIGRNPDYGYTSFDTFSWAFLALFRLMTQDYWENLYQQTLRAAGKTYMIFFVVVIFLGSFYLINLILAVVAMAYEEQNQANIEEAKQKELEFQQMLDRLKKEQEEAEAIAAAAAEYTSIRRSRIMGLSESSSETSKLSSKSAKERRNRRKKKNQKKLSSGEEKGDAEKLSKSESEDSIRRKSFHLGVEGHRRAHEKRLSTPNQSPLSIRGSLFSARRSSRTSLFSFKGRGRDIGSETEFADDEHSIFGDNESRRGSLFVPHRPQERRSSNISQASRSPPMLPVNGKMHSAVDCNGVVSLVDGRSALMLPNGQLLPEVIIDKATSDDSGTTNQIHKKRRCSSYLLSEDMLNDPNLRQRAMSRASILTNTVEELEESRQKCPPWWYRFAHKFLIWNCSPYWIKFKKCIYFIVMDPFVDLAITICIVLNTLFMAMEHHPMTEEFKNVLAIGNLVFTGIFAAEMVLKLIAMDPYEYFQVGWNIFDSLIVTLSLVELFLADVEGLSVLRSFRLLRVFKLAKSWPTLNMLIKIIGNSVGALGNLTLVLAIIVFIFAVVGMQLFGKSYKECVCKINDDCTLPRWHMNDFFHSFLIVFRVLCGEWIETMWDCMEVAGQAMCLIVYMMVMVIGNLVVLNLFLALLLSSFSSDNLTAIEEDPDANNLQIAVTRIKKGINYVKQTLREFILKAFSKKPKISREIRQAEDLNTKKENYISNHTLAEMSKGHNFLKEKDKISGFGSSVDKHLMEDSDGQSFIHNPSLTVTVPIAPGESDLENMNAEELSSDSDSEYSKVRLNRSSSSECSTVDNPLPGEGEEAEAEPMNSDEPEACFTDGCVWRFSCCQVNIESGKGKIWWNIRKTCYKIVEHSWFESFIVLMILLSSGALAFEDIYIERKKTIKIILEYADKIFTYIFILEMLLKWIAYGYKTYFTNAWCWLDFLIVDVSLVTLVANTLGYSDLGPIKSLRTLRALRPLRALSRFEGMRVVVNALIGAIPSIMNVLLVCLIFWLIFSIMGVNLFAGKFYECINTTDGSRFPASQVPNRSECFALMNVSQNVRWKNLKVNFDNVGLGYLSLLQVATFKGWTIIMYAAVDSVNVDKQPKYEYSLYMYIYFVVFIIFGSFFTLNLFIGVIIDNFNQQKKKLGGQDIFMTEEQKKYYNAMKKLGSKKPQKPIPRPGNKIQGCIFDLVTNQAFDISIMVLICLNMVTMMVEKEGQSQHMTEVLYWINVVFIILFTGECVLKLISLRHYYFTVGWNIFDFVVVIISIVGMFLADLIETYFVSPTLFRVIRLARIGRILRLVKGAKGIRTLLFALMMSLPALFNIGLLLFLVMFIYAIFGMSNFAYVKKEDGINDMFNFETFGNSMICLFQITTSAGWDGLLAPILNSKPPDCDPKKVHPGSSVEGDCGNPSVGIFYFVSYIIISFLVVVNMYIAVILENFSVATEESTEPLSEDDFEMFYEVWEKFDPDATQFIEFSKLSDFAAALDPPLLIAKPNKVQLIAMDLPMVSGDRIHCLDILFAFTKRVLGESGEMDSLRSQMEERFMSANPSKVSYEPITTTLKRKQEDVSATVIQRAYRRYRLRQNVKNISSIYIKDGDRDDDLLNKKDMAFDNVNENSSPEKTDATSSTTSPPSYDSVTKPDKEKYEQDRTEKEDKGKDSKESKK

| Compound | IC50 [nM] |
| --- | --- |
| CN(c1ccccc1)c1nc(N)nc(-c2noc(N3C[C@@H]4[C@@H](COCC(F)(F)F)[C@@H]4C3)n2)n1 [Example 387, 2-N-methyl-2-N-phenyl-6-{5-[6-[(2,2,2-trifluoroethoxy)methyl]-3-azabicyclo[3.1.0]hexan-3-yl]-1,2,4-oxadiazol-3-yl}-1,3,5-triazine-2,4-diamine] | 1420 |
| CN(c1ccccc1)c1nc(N)nc(-c2noc(N3CCN(S(=O)(=O)N(C)C)CC3)n2)n1 [Example 388, 4-(3-{4-amino-6-[methyl(phenyl)amino]-1,3,5-triazin-2-yl}-1,2,4-oxadiazol-5-yl)-N,N-dimethylpiperazine-1-sulfonamide] | 2810 |
| CN(c1ccccc1)c1nc(N)nc(-c2noc(N3CCN(S(=O)(=O)CC(F)(F)F)CC3)n2)n1 [Example 389, 2-N-methyl-2-N-phenyl-6-(5-{4-[(2,2,2-trifluoroethane)sulfonyl]piperazin-1-yl}-1,2,4-oxadiazol-3-yl)-1,3,5-triazine-2,4-diamine] | 5990 |
| Nc1nc(Nc2ccccc2)nc(-c2noc(N3C[C@@H]4[C@@H](COCC(F)(F)F)[C@@H]4C3)n2)n1 [Example 390, 2-N-phenyl-6-{5-[6-[(2,2,2-trifluoroethoxy)methyl]-3-azabicyclo[3.1.0]hexan-3-yl]-1,2,4-oxadiazol-3-yl}-1,3,5-triazine-2,4-diamine] | 702 |
| Nc1nc(Nc2ccccc2)nc(-c2noc(N3C[C@@H]4[C@@H](COCC5CC5)[C@@H]4C3)n2)n1 [Example 393, 6-{5-[6-[(cyclopropylmethoxy)methyl]-3-azabicyclo[3.1.0]hexan-3-yl]-1,2,4-oxadiazol-3-yl}-2-N-phenyl-1,3,5-triazine-2,4-diamine] | 884 |
| CN(c1ccccc1)c1nc(N)nc(-c2noc(N3C[C@@H]4[C@@H](COCC5CC5)[C@@H]4C3)n2)n1 [Example 395, 6-{5-[6-[(cyclopropylmethoxy)methyl]-3-azabicyclo[3.1.0]hexan-3-yl]-1,2,4-oxadiazol-3-yl}-2-N-methyl-2-N-phenyl-1,3,5-triazine-2,4-diamine] | 2660 |
| CN(c1ccccc1)c1nc(N)nc(-c2noc(N3C[C@@H]4[C@@H](COCCC(F)(F)F)[C@@H]4C3)n2)n1 [Example 396, 2-N-methyl-2-N-phenyl-6-{5-[6-[(3,3,3-trifluoropropoxy)methyl]-3-azabicyclo[3.1.0]hexan-3-yl]-1,2,4-oxadiazol-3-yl}-1,3,5-triazine-2,4-diamine] | 1130 |
| CC(C)OC[C@@H]1[C@H]2CN(c3nc(-c4nc(N)nc(N(C)c5ccccc5)n4)no3)C[C@@H]12 [Example 397, 2-N-methyl-2-N-phenyl-6-{5-[6-[(propan-2-yloxy)methyl]-3-azabicyclo[3.1.0]hexan-3-yl]-1,2,4-oxadiazol-3-yl}-1,3,5-triazine-2,4-diamine] | 3940 |
| CC(C)OC[C@@H]1[C@H]2CN(c3nc(-c4nc(N)nc(Nc5ccccc5)n4)no3)C[C@@H]12 [Example 398, 2-N-phenyl-6-{5-[(1R,5S,6S)-6-[(propan-2-yloxy)methyl]-3-azabicyclo[3.1.0]hexan-3-yl]-1,2,4-oxadiazol-3-yl}-1,3,5-triazine-2,4-diamine] | 691 |
| Nc1nc(Nc2ccccc2)nc(-c2noc(N3C[C@@H]4[C@@H](COC5CCCC5)[C@@H]4C3)n2)n1 [Example 400, 6-{5-[6-[(cyclopentyloxy)methyl]-3-azabicyclo[3.1.0]hexan-3-yl]-1,2,4-oxadiazol-3-yl}-2-N-phenyl-1,3,5-triazine-2,4-diamine] | 292 |
| CN(c1ccccc1)c1nc(N)nc(-c2noc(C(=O)N3CCC(CSCC(F)(F)F)CC3)n2)n1 [Example 401, 2-N-Methyl-2-N-phenyl-6-{5-[(4-{[(2,2,2-trifluoroethyl)sulfanyl]methyl}piperidin-1-yl)carbonyl]-1,2,4-oxadiazol-3-yl}-1,3,5-triazine-2,4-diamine] | 1040 |
| CN(c1ccccc1)c1nc(N)nc(-c2noc(C(=O)N3C[C@@H]4[C@@H](COCC(F)(F)F)[C@@H]4C3)n2)n1 [Example 402, 2-N-methyl-2-N-phenyl-6-(5-{[-6-[(2,2,2-trifluoroethoxy)methyl]-3-azabicyclo[3.1.0]hexan-3-yl]carbonyl}-1,2,4-oxadiazol-3-yl)-1,3,5-triazine-2,4-diamine] | 3970 |
| CN(c1ccccc1)c1nc(N)nc(-c2noc(C(=O)N3C[C@@H]4[C@@H](COCC5CC5)[C@@H]4C3)n2)n1 [Example 404, 6-(5-{[-6-[(cyclopropylmethoxy)methyl]-3-azabicyclo[3.1.0]hexan-3-yl]carbonyl}-1,2,4-oxadiazol-3-yl)-2-N-methyl-2-N-phenyl-1,3,5-triazine-2,4-diamine] | 3460 |
| CN(c1ccccc1)c1nc(N)nc(-c2noc(C(=O)N3C[C@@H]4[C@@H](COC5CCCC5)[C@@H]4C3)n2)n1 [Example 405, 6-(5-{[-6-[(cyclopentyloxy)methyl]-3-azabicyclo[3.1.0]hexan-3-yl]carbonyl}-1,2,4-oxadiazol-3-yl)-2-N-methyl-2-N-phenyl-1,3,5-triazine-2,4-diamine] | 1280 |
| CN(c1ccccc1)c1nc(N)nc(-c2noc(C(=O)N3C[C@@H]4[C@@H](COc5ccccc5)[C@@H]4C3)n2)n1 [Example 406, 2-N-methyl-6-(5-{[-6-(phenoxymethyl)-3-azabicyclo[3.1.0]hexan-3-yl]carbonyl}-1,2,4-oxadiazol-3-yl)-2-N-phenyl-1,3,5-triazine-2,4-diamine] | 624 |
| CN(c1cccc(F)c1)c1nc(N)nc(-c2noc(-c3ccc(OCC(F)(F)F)nc3)n2)n1 [Example 407, 2-N-(3-fluorophenyl)-2-N-methyl-6-{5-[6-(2,2,2-trifluoroethoxy)pyridin-3-yl]-1,2,4-oxadiazol-3-yl}-1,3,5-triazine-2,4-diamine] | 201 |
| CN(c1nc(N)nc(-c2noc(-c3ccc(OCC(F)(F)F)nc3)n2)n1)c1ccccc1F [Example 408, 2-N-(2-fluorophenyl)-2-N-methyl-6-{5-[6-(2,2,2-trifluoroethoxy)pyridin-3-yl]-1,2,4-oxadiazol-3-yl}-1,3,5-triazine-2,4-diamine] | 139 |
| CN(c1ccc(F)cc1)c1nc(N)nc(-c2noc(-c3ccc(OCC(F)(F)F)nc3)n2)n1 [Example 410, 2-N-(4-fluorophenyl)-2-N-methyl-6-{5-[6-(2,2,2-trifluoroethoxy)pyridin-3-yl]-1,2,4-oxadiazol-3-yl}-1,3,5-triazine-2,4-diamine] | 1150 |

The remaining lines, values ahead:

| IC50 [nM] | Compound |
| --- | --- |
| > 8590 | CC(=O)N1CC(c2nc(-c3nc(N)nc(N(C)c4ccccc4)n3)no2)C1 [Example 384, 1-[3-(3-{4-Amino-6-[methyl(phenyl)amino]-1,3,5-triazin-2-yl}-1,2,4-oxadiazol-5-yl)azetidin-1-yl]ethan-1-one] |
| 2210 | CN(c1ccccc1)c1nc(N)nc(-c2noc(C3CN(CCC(F)(F)F)C3)n2)n1 [Example 385, 2-N-methyl-2-N-phenyl-6-{5-[1-(3,3,3-trifluoropropyl)azetidin-3-yl]-1,2,4-oxadiazol-3-yl}-1,3,5-triazine-2,4-diamine] |
| > 9980 | CN(c1ccccc1)c1nc(N)nc(-c2noc([C@H]3[C@@H]4C(=O)N(Cc5ccccc5)C(=O)[C@@H]43)n2)n1 [Example 386, (1R,5S,6S)-6-(3-{4-Amino-6-[methyl(phenyl)amino]-1,3,5-triazin-2-yl}-1,2,4-oxadiazol-5-yl)-3-benzyl-3-azabicyclo[3.1.0]hexane-2,4-dione] |
| 539 | CN(c1ccccc1)c1nc(N)nc(-c2noc(N3CC4C(COc5ccccc5)C4C3)n2)n1 (stereo not shown) [Example 391, 2-N-methyl-6-{5-[6-(phenoxymethyl)-3-azabicyclo[3.1.0]hexan-3-yl]-1,2,4-oxadiazol-3-yl}-2-N-phenyl-1,3,5-triazine-2,4-diamine] |
| 433 | Nc1nc(Nc2ccccc2)nc(-c2noc(N3CC4C(COc5ccccc5)C4C3)n2)n1 (stereo not shown) [Example 392, 6-{5-[6-(phenoxymethyl)-3-azabicyclo[3.1.0]hexan-3-yl]-1,2,4-oxadiazol-3-yl}-2-N-phenyl-1,3,5-triazine-2,4-diamine] |
| 664 | Nc1nc(Nc2ccccc2)nc(-c2noc(N3C[C@@H]4[C@@H](COCCC(F)(F)F)[C@@H]4C3)n2)n1 [Example 394, 2-N-phenyl-6-{5-[6-[(3,3,3-trifluoropropoxy)methyl]-3-azabicyclo[3.1.0]hexan-3-yl]-1,2,4-oxadiazol-3-yl}-1,3,5-triazine-2,4-diamine] |
| 620 | CN(c1ccccc1)c1nc(N)nc(-c2noc(N3C[C@@H]4[C@@H](COC5CCCC5)[C@@H]4C3)n2)n1 [Example 399, 6-{5-[6-[(cyclopentyloxy)methyl]-3-azabicyclo[3.1.0]hexan-3-yl]-1,2,4-oxadiazol-3-yl}-2-N-methyl-2-N-phenyl-1,3,5-triazine-2,4-diamine] |
| 1290 | CN(c1ccccc1)c1nc(N)nc(-c2noc(C(=O)N3C[C@@H]4[C@@H](COCCC(F)(F)F)[C@@H]4C3)n2)n1 [Example 403, 2-N-methyl-2-N-phenyl-6-(5-{[-6-[(3,3,3-trifluoropropoxy)methyl]-3-azabicyclo[3.1.0]hexan-3-yl]carbonyl}-1,2,4-oxadiazol-3-yl)-1,3,5-triazine-2,4-diamine] |
| 261 | CN(c1cccc(Cl)c1)c1nc(N)nc(-c2noc(-c3ccc(OCC(F)(F)F)nc3)n2)n1 [Example 409, 2-N-(3-chlorophenyl)-2-N-methyl-6-{5-[6-(2,2,2-trifluoroethoxy)pyridin-3-yl]-1,2,4-oxadiazol-3-yl}-1,3,5-triazine-2,4-diamine] |
| 82 | Cc1cccc(N(C)c2nc(N)nc(-c3noc(-c4ccc(OCC(F)(F)F)nc4)n3)n2)c1 [Example 412, 2-N-methyl-2-N-(3-methylphenyl)-6-{5-[6-(2,2,2-trifluoroethoxy)pyridin-3-yl]-1,2,4-oxadiazol-3-yl}-1,3,5-triazine-2,4-diamine] |
